From patent EP1123702A1, “ANALGESICS” (Eisai Co., Ltd., priority 1998, dated 2000)
Where a name gives a salt, the structure may show the parent alone.

Tests used:
5HT1A = molecular target: T1, 5HT1A (Homo sapiens, UniProt P08908); experiment: Serotonin (5HT) receptor binding action (RBA; in vitro), 5HT1A; conditions: method of JP98/01481 or JP-A 10-281752
T1 sequence (P08908 1-422): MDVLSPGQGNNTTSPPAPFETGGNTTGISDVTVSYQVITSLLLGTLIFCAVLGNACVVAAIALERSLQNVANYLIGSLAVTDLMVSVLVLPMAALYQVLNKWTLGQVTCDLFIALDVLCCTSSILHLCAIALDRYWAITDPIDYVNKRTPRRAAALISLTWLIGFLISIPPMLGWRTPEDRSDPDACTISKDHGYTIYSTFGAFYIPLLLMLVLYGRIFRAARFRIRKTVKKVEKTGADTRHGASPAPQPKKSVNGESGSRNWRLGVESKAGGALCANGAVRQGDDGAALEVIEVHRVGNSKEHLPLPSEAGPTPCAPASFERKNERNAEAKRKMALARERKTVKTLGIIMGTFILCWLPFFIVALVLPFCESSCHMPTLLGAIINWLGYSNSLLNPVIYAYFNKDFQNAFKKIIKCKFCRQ

writhing behavior = experiment: Analgesic action by a writhing method using acetic acid; format: in vivo, Male mice of a ddY strain; conditions: sc; statistically minimum effective dose; 0.6% acetic acid ip 15 minutes after the drug, writhing counted for ten minutes; mice
5HT2 = 5HT2 (Homo sapiens, UniProt P28223); experiment: Serotonin (5HT) receptor binding action (RBA; in vitro), 5HT2; conditions: method of JP98/01481 or JP-A 10-281752
5HT2, sequence (P28223 whole entry, species assumed): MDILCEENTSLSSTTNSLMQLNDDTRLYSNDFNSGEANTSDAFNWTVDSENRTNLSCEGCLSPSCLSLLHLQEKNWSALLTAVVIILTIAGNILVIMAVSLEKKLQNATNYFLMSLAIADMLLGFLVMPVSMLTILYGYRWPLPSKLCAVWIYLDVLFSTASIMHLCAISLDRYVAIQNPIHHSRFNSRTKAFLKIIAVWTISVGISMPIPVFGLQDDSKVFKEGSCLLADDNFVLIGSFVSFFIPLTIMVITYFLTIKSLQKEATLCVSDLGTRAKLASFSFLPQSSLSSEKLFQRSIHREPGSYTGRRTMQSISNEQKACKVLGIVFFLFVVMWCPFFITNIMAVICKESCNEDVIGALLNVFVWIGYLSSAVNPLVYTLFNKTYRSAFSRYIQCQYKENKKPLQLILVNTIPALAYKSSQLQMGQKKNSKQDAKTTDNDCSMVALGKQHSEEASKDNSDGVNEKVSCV

[1] = Muscle relaxing action (in vivo); conditions: method of JP98/01481 or JP-A 10-281752
From the text: There are also shown a serotonin (5HT) receptor binding action (RBA; in vitro) and a muscle relaxing action (in vivo) measured according to a method described in JP98/01481 or JP-A 10-281752. (In the table, "n.t." means "not tested").

Row | Ki (5HT1A) [nM] | Ki (5HT2) [nM] | Structure (SMILES) | Analgesic Action (minimum effective dose) (writhing behavior) [mg/kg] | Muscle-Relaxing Action (ip) [1] [mg/kg] | Muscle-Relaxing Action (po) [1] [mg/kg]
1 | 6.43 | 0.43 | CC(=O)NCc1ccc2c(c1)N(C1CCN(CCc3ccc(F)cc3)CC1)CC2 [(14), 1-[1-(4-fluorophenethyl)piperidin-4-yl]-6-(N-acetylaminomethyl)indoline] | 0.3 | 0.3 | 0.3
2 | 31.2 | 0.7 | CCN1CCN(c2nc(-c3ccc(CCC(C)(C)O)c(F)c3)cc3ccccc23)CC1.Cl [(19), 1-(4-ethylpiperazin-1-yl)-3-[3-fluoro-4-(3-hydroxy-3-methylbutyl)phenyl]isoquinoline hydrochloride] | 1 | < 10 | 3
3 | 6.9 | 1.6 | CCC(O)c1ccc(-c2cc3ccccc3c(N3CCN(CC)CC3)n2)cc1 (centres unmarked) [(17), 1-(4-ethylpiperazin-1-yl)-3-[4-(1-hydroxypropyl)phenyl]isoquinoline] | 1 | 1 | 10
4 | 13.4 | 4.5 | CCN1CCN(c2nc(-c3ccc(OCCO)c(C#N)c3)cc3ccccc23)CC1.Cl [(21), 1-(4-ethylpiperazin-1-yl)-3-(3-cyano-4-hydroxyethoxyphenyl)isoquinoline hydrochloride] | 1 | 10 | –
5 | 31.5 | 4.2 | CCN1CCN(c2nc(-c3ccc(OCCO)cc3)cc3ccccc23)CC1 [(16), 1-(4-ethylpiperazin-1-yl)-3-(4-hydroxyethoxyphenyl)isoquinoline] | 1 | 1 | 3

Row | Structure (SMILES) | Ki (5HT1A) [nM] | Ki (5HT2) [nM] | Analgesic Action (minimum effective dose) (writhing behavior) [mg/kg] | Muscle-Relaxing Action (ip) [1] [mg/kg] | Muscle-Relaxing Action (po) [1] [mg/kg]
6 | CCCNC(=O)c1ccc(-c2cc3ccccc3c(N3CCN(CC)CC3)n2)cc1 [(18), 1-(4-ethylpiperazin-1-yl) -3-[4-(N-propylamide)phenyl]isoquinoline hydrochloride] | 14.6 | 1.1 | 1 | > 10 | 3
